Data published in patent US20210115104A1, “AMYLIN ANALOGUES” (Zealand Pharma A/S, priority 2015, published 2021).
Where two headings read alike, the source gives them in different places. *1 amine or outer side, *2 acyl side, *3 side chain or, on linkers, in order; H or OH if unused. Where a SMILES comes first, the peptide text is derived from it. Bridges are numbered along the chain shown (N, C = ends). [ ]: non-standard residue; d: D form. The star is where a group is joined. C20 diacid = O=C(O)CCCCCCCCCCCCCCCCCCC(=O)*; γGlu = O=C(O)[C@H](CCC(=O)[*:2])N[*:1]; Hyp = O=C(O)[C@@H]1C[C@@H](O)CN1; NMeI = CC[C@H](C)[C@H](NC)C(=O)O; Aad = N[C@@H](CCCC(=O)O)C(=O)O; Sar = CNCC(=O)O

What was measured:
[1] = molecular target: T1, human calcitonin receptor (hCTR2) (Homo sapiens, UniProt P30988); experiment: hCTR2 cAMP assay (AlphaScreen) in COS7 cells; type: cell-based
T1 construct: expressed in transfected cells
T1 sequence (P30988 25-474): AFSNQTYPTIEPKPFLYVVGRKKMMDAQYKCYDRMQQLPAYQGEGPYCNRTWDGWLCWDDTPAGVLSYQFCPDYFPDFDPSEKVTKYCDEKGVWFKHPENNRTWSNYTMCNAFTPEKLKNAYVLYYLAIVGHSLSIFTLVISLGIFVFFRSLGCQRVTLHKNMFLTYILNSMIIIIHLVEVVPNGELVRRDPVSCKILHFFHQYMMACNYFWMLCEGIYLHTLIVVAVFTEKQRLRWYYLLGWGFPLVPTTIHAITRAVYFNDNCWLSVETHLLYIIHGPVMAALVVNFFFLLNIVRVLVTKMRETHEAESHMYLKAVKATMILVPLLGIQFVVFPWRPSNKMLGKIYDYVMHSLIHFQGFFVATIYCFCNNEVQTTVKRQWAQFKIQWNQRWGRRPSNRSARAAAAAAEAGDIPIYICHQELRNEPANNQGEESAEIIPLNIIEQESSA
Procedure, shortened: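 cAMP induction, read by AlphaScreen after lysis, gives EC50 values via 4PL curve fitting. Peptides were applied at rising concentrations for 15 min at 37 °C, with IBMX and 0.1% casein in HEPES-buffered Tyrode pH 7.4, to COS7 cells (no endogenous RAMPs) stably expressing human CTR2.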

[2] = Assessment of physical stability (Thioflavin T fibrillation); type: physicochemical; set-up: key: FND = fibrillation not detected; FD = fibrillation detected; conditions: 1 mg/ml, 40° C., ThT; for Fibrillation pH 4.0 (Ac): 50 mM acetate buffer pH 4.0, 96 hours; for Fibrillation pH 7.0 (His): 50 mM histidine buffer pH 7.0, 96 hours; for Fibrillation pH 7.0 (Phos.): 50 mM phosphate buffer pH 7.0, 96 hours
Procedure, shortened: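 Fibrillation lag-time, in hours, taken where regressions of the initial stable phase and the growth phase intersect. ThT (40 μM) fluorescence monitored at 40 °C for 96 h, 10-min reads each preceded by 300 s mixing. Peptide at 1 mg/ml in 50 mM buffers: phosphate or histidine pH 7.0, acetate pH 4.0.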

[3] = molecular target: T2, human amylin receptor 3 (hAMYR3), hCTR2 co-expressed with hRAMP3 (Homo sapiens, UniProt O60896+P30988); experiment: hAMYR3 cAMP assay (AlphaScreen) in COS7 cells; type: cell-based
T2 construct: expressed in transfected cells
T2 sequence (P30988 25-474): T1 sequence (P30988 25-474)
T2 sequence (O60896 24-148 partner): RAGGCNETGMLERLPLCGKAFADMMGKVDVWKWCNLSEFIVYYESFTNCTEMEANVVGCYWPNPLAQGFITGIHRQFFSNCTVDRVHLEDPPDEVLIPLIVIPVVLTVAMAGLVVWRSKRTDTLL
Procedure, shortened: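 EC50 values derive from 4PL curve fits of cAMP (AlphaScreen) in lysates of RAMP-naive COS7 cells stably carrying hCTR2 plus hRAMP3. Peptide dilution series were applied for 15 min at 37 °C in pH 7.4 Tyrode buffer containing 100 µM IBMX and 0.1% casein.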

[4] = Assessment of chemical stability (RP-HPLC normalized purity); type: physicochemical
Procedure, shortened: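 Purity after 7 days at 40° C is expressed relative to T=0 (set to 100) for each pH. Samples at 0.2 mg/ml, pH 4, 6, 7.5 or 9, analyzed by RP-HPLC with UV 220 nm on C8 (ammonium formate) or C18 (TFA) gradients.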

[5] = cAMP induction, COS7 cells expressing hCTR2, Table 1, read-out: hCTR2 EC50
[6] = cAMP induction, COS7 cells expressing hAMYR3, Table 1, read-out: hAMYR3 EC50

| EC50 [1, 5] [nM] | Fibrillation pH 4.0 (Ac) [2] | Fibrillation pH 7.0 (His) [2] | Fibrillation pH 7.0 (Phos.) [2] | EC50 [3, 6] [nM] | Normalized purity after 7 days, 40° C., pH 4 ([4]; pH 4, 0.2 mg/ml, 7 days, 40° C., Table 1) | Normalized purity after 7 days, 40° C., pH 6 ([4]; pH 6, 0.2 mg/ml, 7 days, 40° C., Table 1) | Normalized purity after 7 days, 40° C., pH 7.5 ([4]; pH 7.5, 0.2 mg/ml, 7 days, 40° C., Table 1) | Normalized purity after 7 days, 40° C., pH 9 ([4]; pH 9, 0.2 mg/ml, 7 days, 40° C., Table 1) | SMILES | EC50 [1] [nM] | EC50 [3] [nM] | Normalized purity pH 4 (Table 5) ([4]; pH 4, repeat of Example 6 for pairs with/without Asn-Asn at 21-22) | Normalized purity pH 6 (Table 5) ([4]; pH 6, repeat of Example 6 for pairs with/without Asn-Asn at 21-22) | Normalized purity pH 7.5 (Table 5) ([4]; pH 7.5, repeat of Example 6 for pairs with/without Asn-Asn at 21-22) | Normalized purity pH 9 (Table 5) ([4]; pH 9, repeat of Example 6 for pairs with/without Asn-Asn at 21-22) |
| --- | --- | --- | --- | --- | --- | --- | --- | --- | --- | --- | --- | --- | --- | --- | --- |
| 0.17 | FND | FD | FD | 0.23 |  |  |  |  | CC[C@H](C)[C@@H](C(=O)N[C@@H](CC(C)C)C(=O)N[C@@H](CO)C(=O)N[C@@H](CO)C(=O)N[C@H](C(=O)N[C@@H](CCC(=O)O)C(=O)N[C@H](C(=O)NCC(=O)N[C@@H](CO)C(=O)N[C@@H](Cc1ccccc1)C(=O)N[C@H](C(=O)N1C[C@H](O)C[C@H]1C(N)=O)[C@@H](C)O)C(C)C)[C@@H](C)O)N(C)C(=O)[C@H](C)NC(=O)CN(C)C(=O)[C@H](Cc1ccccc1)NC(=O)[C@H](CO)NC(=O)[C@H](CO)NC(=O)[C@H](CCCNC(=N)N)NC(=O)[C@H](CCC(N)=O)NC(=O)[C@H](CC(C)C)NC(=O)[C@H](Cc1ccccc1)NC(=O)[C@H](Cc1c[nH]cn1)NC(=O)[C@H](C)NC(=O)[C@H](CC(C)C)NC(=O)[C@H](CCCNC(=N)N)NC(=O)[C@H](CCC(=O)O)NC(=O)[C@@H](NC(=O)[C@H](C)NC(=O)[C@@H]1CSSC[C@H](NC(=O)[C@H](CCCNC(=N)N)NC(=O)CC[C@H](NC(=O)CCCCCCCCCCCCCCCCCCC(=O)O)C(=O)O)C(=O)NCC(=O)N[C@@H]([C@@H](C)O)C(=O)N[C@@H](C)C(=O)N[C@@H]([C@@H](C)O)C(=O)N1)[C@@H](C)O [Compound 32, [19CD]-isoGlu-R-C( )-GTAT-C( )-ATERLAHFLQRSSF-Gly(Me)-A-Ile(Me)-LSSTEVGSFT-Hyp-NH2] ({C20 diacid-γGlu}-RCGTATCATERLAHFLQRSSF[Sar]A[NMeI]LSSTEVGSFT[Hyp]-NH2; disulfide 2-7) |  |  |  |  |  |  |
| 0.12 | FND | FD | FD | 0.23 |  |  |  |  | CC[C@H](C)[C@@H](C(=O)N[C@@H](CC(C)C)C(=O)N[C@@H](CO)C(=O)N[C@@H](CO)C(=O)N[C@H](C(=O)N[C@@H](CCC(=O)O)C(=O)N[C@H](C(=O)NCC(=O)N[C@@H](CO)C(=O)N[C@@H](CCC(=O)O)C(=O)N[C@H](C(=O)N1CCC[C@H]1C(N)=O)[C@@H](C)O)C(C)C)[C@@H](C)O)N(C)C(=O)[C@H](C)NC(=O)CN(C)C(=O)[C@H](Cc1ccccc1)NC(=O)[C@H](CO)NC(=O)[C@@H](NC(=O)[C@H](CCCNC(=N)N)NC(=O)[C@H](Cc1c[nH]cn1)NC(=O)[C@H](CC(C)C)NC(=O)[C@H](Cc1ccccc1)NC(=O)[C@H](Cc1c[nH]cn1)NC(=O)[C@H](C)NC(=O)[C@H](CC(C)C)NC(=O)[C@H](CCCNC(=N)N)NC(=O)[C@H](CCC(N)=O)NC(=O)[C@@H](NC(=O)[C@H](C)NC(=O)[C@@H]1CSSC[C@H](NC(=O)[C@H](CCCNC(=N)N)NC(=O)CC[C@H](NC(=O)CCCCCCCCCCCCCCCCCCC(=O)O)C(=O)O)C(=O)N[C@@H](CC(N)=O)C(=O)N[C@@H]([C@@H](C)O)C(=O)N[C@@H](C)C(=O)N[C@@H]([C@@H](C)O)C(=O)N1)[C@@H](C)O)C(C)C [Compound 21, [19CD]-isoGlu-R-C( )-NTAT-C( )-ATQRLAHFLHRVSF-Gly(Me)-A-Ile(Me)-LSSTEVGSETP-NH2] ({C20 diacid-γGlu}-RCNTATCATQRLAHFLHRVSF[Sar]A[NMeI]LSSTEVGSETP-NH2; disulfide 2-7) |  |  |  |  |  |  |
|  |  |  |  |  |  |  |  |  | CC[C@H](C)[C@@H](C(=O)N[C@@H](CC(C)C)C(=O)N[C@@H](CO)C(=O)N[C@@H](CO)C(=O)N[C@H](C(=O)N[C@@H](CCC(=O)O)C(=O)N[C@H](C(=O)NCC(=O)N[C@@H](CO)C(=O)N[C@@H](CC(N)=O)C(=O)N[C@H](C(=O)N1C[C@H](O)C[C@H]1C(N)=O)[C@@H](C)O)C(C)C)[C@@H](C)O)N(C)C(=O)[C@H](C)NC(=O)CN(C)C(=O)[C@H](Cc1ccccc1)NC(=O)[C@H](CC(N)=O)NC(=O)[C@H](CC(N)=O)NC(=O)[C@H](CO)NC(=O)[C@H](CO)NC(=O)[C@H](CCCNC(=N)N)NC(=O)[C@H](CCC(N)=O)NC(=O)[C@H](CC(C)C)NC(=O)[C@H](Cc1ccccc1)NC(=O)[C@H](CCCC(=O)O)NC(=O)[C@H](C)NC(=O)[C@H](CC(C)C)NC(=O)[C@H](CCCNC(=N)N)NC(=O)[C@H](CCC(=O)O)NC(=O)[C@@H](NC(=O)[C@H](C)NC(=O)[C@@H]1CSSC[C@H](NC(=O)[C@H](CCCNC(=N)N)NC(=O)CC[C@H](NC(=O)CCCCCCCCCCCCCCCCCCC(=O)O)C(=O)O)C(=O)NCC(=O)N[C@@H]([C@@H](C)O)C(=O)N[C@@H](C)C(=O)N[C@@H]([C@@H](C)O)C(=O)N1)[C@@H](C)O [Compound 98, [19CD]-isoGlu-R-C( )-GTAT-C( )-ATERLA-Aad-FLQRSSNNF-Gly(Me)-A-Ile(Me)-LSSTEVGSNT-Hyp-NH2, reference compound] ({C20 diacid-γGlu}-RCGTATCATERLA[Aad]FLQRSSNNF[Sar]A[NMeI]LSSTEVGSNT[Hyp]-NH2; disulfide 2-7) | 7.2 | 0.38 | A (A = >90%) | A (A = >90%) | B (B = 70-90%) | B (B = 70-90%) |
| 0.22 |  |  |  | 0.35 | A (A = >90%) | A (A = >90%) | A (A = >90%) | A (A = >90%) | CC[C@H](C)[C@@H](C(=O)N[C@@H](CC(C)C)C(=O)N[C@@H](CO)C(=O)N[C@@H](CO)C(=O)N[C@H](C(=O)N[C@@H](CCC(=O)O)C(=O)N[C@H](C(=O)NCC(=O)N[C@@H](CO)C(=O)N[C@@H](CO)C(=O)N[C@H](C(=O)N1C[C@H](O)C[C@H]1C(N)=O)[C@@H](C)O)C(C)C)[C@@H](C)O)N(C)C(=O)[C@H](C)NC(=O)CN(C)C(=O)[C@H](Cc1ccccc1)NC(=O)[C@H](CO)NC(=O)[C@H](CO)NC(=O)[C@H](CCCNC(=N)N)NC(=O)[C@@H](NC(=O)[C@H](CC(C)C)NC(=O)[C@H](Cc1ccccc1)NC(=O)[C@H](CCCC(=O)O)NC(=O)[C@H](C)NC(=O)[C@H](CC(C)C)NC(=O)[C@H](CCCNC(=N)N)NC(=O)[C@H](CCC(=O)O)NC(=O)[C@@H](NC(=O)[C@H](C)NC(=O)[C@@H]1CSSC[C@H](NC(=O)[C@H](CCCNC(=N)N)NC(=O)CC[C@H](NC(=O)CCCCCCCCCCCCCCCCCCC(=O)O)C(=O)O)C(=O)NCC(=O)N[C@@H]([C@@H](C)O)C(=O)N[C@@H](C)C(=O)N[C@@H]([C@@H](C)O)C(=O)N1)[C@@H](C)O)[C@@H](C)O [Compound 43, [19CD]-isoGlu-R-C( )-GTAT-C( )-ATERLA-Aad-FLTRSSF-Gly(Me)-A-Ile(Me)-LSSTEVGSST-Hyp-NH2] ({C20 diacid-γGlu}-RCGTATCATERLA[Aad]FLTRSSF[Sar]A[NMeI]LSSTEVGSST[Hyp]-NH2; disulfide 2-7) |  |  |  |  |  |  |
